Experiment [1] deals with CD45+/CD11b+/CD11c+ dendritic cells. As to the kind of experiment: Flow cytometric analysis of implant infiltration. It is filed as in vivo, mice. To be noted: for recruitment of immune cells to the hydrogel in vivo: subcutaneous flank of mice, within 3 days. As to the method:
Flow cytometric analysis of implant infiltration. Implanted gels are harvested from mice, digested and processed into single cell suspension. Cells are incubated with blocking antibody, followed by addition of antibodies to create three panels: myeloid cells (CD45, Gr-1, Ly-6C, CD11b, F4/80), lymphoid cells (CD45, NK-1.1, CD11b, CD3e, CD8a, CD4, CD19) and dendritic cells (CD45, CD8a, CD11b, CD11c, PDCA-1 and CD103). For each time point five mice with two hydrogel boluses are assessed for an n of 10.

The subject of another experiment is MOC2-E6E7 tumors. The experiment can be described thus: Tumor growth and survival study (Examples 3-4). To be noted: day 105 after initial inoculation; n=10 per group. It is filed as in vivo, C57BL/6 mice. As to the method: Tumor growth and survival study. For tumor experiments, 6-8 week old wild-type C57BL/6 female mice were maintained in a pathogen-free environment for the study. All protocols were in accordance with the guidelines for humane treatment of laboratory animals by the National Institutes of Health, the Animal Welfare Committee and the Center for Laboratory Animal Medicine and Care (CLAMC) at the University of Texas Health Science Center at Houston. Mice were injected with MOC2-E6E7 tumor cells on day 0 into the maxillary oral vestibule (30,000 cells in 30 μL volume), followed by controls or gel injections loaded with or without CDN on day 3 in the same oral cavity location (20 lag CDN per 30 μL injection). Tumor growth was measured using calipers and body weight was taken in all subjects two to three times per week. Photographs were also obtained. Kaplan-Meier survival and tumor growth curve analyses were performed from data obtained. Mice that maintained tumor clearance for 100 days were re-challenged with MOC2-E6E7 tumor cells again at day 105 and monitored similarly. All endpoints in tumor growth curve and survival data are a result of euthanasia due to excessive tumor burden, defined as tumor reaching 12 mm, tumor ulceration, or a weight loss of greater than 20%. The inventors observed no signs of unexpected disease or discomfort in the mice over the course of the experiments.
Statistical methods. Statistical analyses for Kaplan-Meier survival curves were performed using the log-rank/Mantel-Cox test with GraphPad Prism (GraphPad, San Diego, CA). For tumor growth curves, the Wilcoxon rank sum test was used to compare tumor size between STINGel and other groups. No adjustment for multiple testing was made because the study is novel and exploratory. All p values are two-sided and p values less than 0.05 were considered as significant. All statistical analyses were performed using the SAS software (version 9.4, the SAS Institute, Cary, NC).

The next experiment has as its system MOC-2-E6E7 tumors. The experiment can be described thus: MOC-2-E6E7 orthotopic murine model of HNSCC, survival (Example 2, FIG. 2E). As to conditions: mouse, in vivo. Further details: species or system C57BL/6 mice. As to the method: MOC-2-E6E7 Orthotopic murine model of HNSCC. 6 week-old male and female C57BL/6 mice will be inoculated in the left maxillary vestibule with MOC-2-E6E7 cells (30,000 cells in 30 μl volume). Animals will be monitored using a body condition scoring system to ensure they maintain a healthy weight and show no obvious signs of distress. At Day 14 post-tumor inoculation, STINGel (20 jug CDN in 30 μl of MDP hydrogel) or controls (as above) are injected into the oral tumor site. Animal studies will be done in triplicate, independent experiments for significance. Between-group differences in flow cytometric data will be statistically evaluated with one-way ANOVA and post-hoc analysis using Tukey's method. Differences between groups will be considered significant if p<0.05. In efficacy studies, Kaplan-Meier survival curves will be compared using the log-rank/Mantel-Cox test and tumor growth curves will be analyzed using the Koziol method (Koziol et al., 1981; 1982).

Regarding “K2(SL)6K2 (SEQ ID NO: 1) (Ac-KKSLSLSLSLSLSLKK-NH2) [MDP gel, self-assembling multidomain peptide hydrogel, acetylated N-terminus and C-terminal amide]”, the “recruitment of immune cells to the hydrogel in vivo” value in experiment [1] (listed as Lys-MDP) is “substantial population”; in experiment [1] (listed as MDP hydrogel), “robust recruitment of immunocytes”. In addition, the “CD45+/CD11b+/CD11c+ dendritic cells” value in experiment [1] (three days after subcutaneous injection, un-loaded) turned out to be 13.5%. Further, the “mice maintaining tumor clearance and reaching reinoculation point” value with MOC2-E6E7 tumors is given as “No mice”. For the same substance, in the experiment with MOC-2-E6E7 tumors, the “mortality before day 60” value stood at 100%.

The record behind these values is patent US11969499B2, “Hydrogel delivery of sting immunotherapy for treatment cancer” (WILLIAM MARSH RICE UNIVERSITY, priority 2017, dated 2024).
